# Patent publication US12662464B2, “Degraders of cyclin-dependent kinase 12 (CDK12) and uses thereof” (DANA-FARBER CANCER INSTITUTE, INC., priority 2019, dated 2026)
# How the values were obtained:
# [1] = target: T1, CDK12 (Homo sapiens, UniProt Q9NYV4); test: CDK12 degradation by Western blotting; type: cell-based; details: degradation of CDK12 at 100 nM
# T1 construct: endogenous in cells; host or cells: Jurkat (human T-ALL)
# Procedure: Cells treated with DMSO or with the CDK12 degraders BSJ-04-023, BSJ-04-071, BSJ-04-076, BSJ-04-077, BSJ-04-078, BSJ-04-079, and BSJ-04-100 at the indicated concentrations were collected and examined with Western blots at 6 hours.
# Cells treated with DMSO or with the CDK12 degraders BSJ-04-023, BSJ-04-086, BSJ-04-089, BSJ-04-098, BSJ-04-099, and BSJ-04-100 at the indicated concentrations were collected and examined with Western blots at 6 hours.
# Assays for the degradation of CDK12 by exemplary compounds of Formula (I) were conducted. The results for the assays for the degradation of CDK12 by exemplary CDK12 degrader compounds depicted in Table 1 are shown in FIGS. 1-3.
# [2] = Pharmacokinetic study, single IV injection in mice; type: in vivo; details: 2 mg/kg IV, male C57BI/6 mice, plasma
# Procedure: Standard pharmacokinetic parameters were determined by administration of exemplary compound BSJ-05-063 to male C57BI/6 mice, and conducting standard pharmacokinetic studies. A single 2 mg/kg intravenous (IV) injection of compound BSJ-05-063 solution in […] DMSO/Cremophor EL® (oxirane, propane-1,2,3-triol)/water was delivered, and the pharmacokinetic parameters were evaluated. The plasma concentrations of BSJ-05-063 were reported at each of the 8 time points (5 minutes, 15 minutes, 30 minutes, 1 hours, 2 hours, 4 hours, 6 hours, and 8 hours post-dosing) are the average values from 3 test animals (male C57BI/6 mice).
# [3] = tested on: CDK12, CDK13, CDK9; test: Rescue of degradation by pre-treatment, Western blot in Jurkat and Molt 4 cells; type: cell-based, human; details: 2 hour pre-treatment with THZ-5-31, Carfilzomib, thalidomide or MLN4924, then 250 nM for 6 hours
# Procedure: FIGS. 1-3 show the degradation rescued by pre-treatment with Carlfilzomib and exemplary CDK12 irreversible inhibitor, THZ-5-31
# The degradation of CDK12, CDK13, CDK9 was rescued by 2 hour pre-treatment with exemplary CDK12 inhibitor THZ-5-31, exemplary […] Carfilzomib (CFZ), thalidomide (Thal.) and MLN4924 (inhibitor of NEDD8-Activating Enzyme (NAE)) at the indicated concentrations before treatment with exemplary CDK12 inhibitor BSJ-0423 (BSJ-04-023) at 250 nM for 6 hours. BSJ-04-023 is of formula: […]
# T1 sequence (Q9NYV4 whole entry): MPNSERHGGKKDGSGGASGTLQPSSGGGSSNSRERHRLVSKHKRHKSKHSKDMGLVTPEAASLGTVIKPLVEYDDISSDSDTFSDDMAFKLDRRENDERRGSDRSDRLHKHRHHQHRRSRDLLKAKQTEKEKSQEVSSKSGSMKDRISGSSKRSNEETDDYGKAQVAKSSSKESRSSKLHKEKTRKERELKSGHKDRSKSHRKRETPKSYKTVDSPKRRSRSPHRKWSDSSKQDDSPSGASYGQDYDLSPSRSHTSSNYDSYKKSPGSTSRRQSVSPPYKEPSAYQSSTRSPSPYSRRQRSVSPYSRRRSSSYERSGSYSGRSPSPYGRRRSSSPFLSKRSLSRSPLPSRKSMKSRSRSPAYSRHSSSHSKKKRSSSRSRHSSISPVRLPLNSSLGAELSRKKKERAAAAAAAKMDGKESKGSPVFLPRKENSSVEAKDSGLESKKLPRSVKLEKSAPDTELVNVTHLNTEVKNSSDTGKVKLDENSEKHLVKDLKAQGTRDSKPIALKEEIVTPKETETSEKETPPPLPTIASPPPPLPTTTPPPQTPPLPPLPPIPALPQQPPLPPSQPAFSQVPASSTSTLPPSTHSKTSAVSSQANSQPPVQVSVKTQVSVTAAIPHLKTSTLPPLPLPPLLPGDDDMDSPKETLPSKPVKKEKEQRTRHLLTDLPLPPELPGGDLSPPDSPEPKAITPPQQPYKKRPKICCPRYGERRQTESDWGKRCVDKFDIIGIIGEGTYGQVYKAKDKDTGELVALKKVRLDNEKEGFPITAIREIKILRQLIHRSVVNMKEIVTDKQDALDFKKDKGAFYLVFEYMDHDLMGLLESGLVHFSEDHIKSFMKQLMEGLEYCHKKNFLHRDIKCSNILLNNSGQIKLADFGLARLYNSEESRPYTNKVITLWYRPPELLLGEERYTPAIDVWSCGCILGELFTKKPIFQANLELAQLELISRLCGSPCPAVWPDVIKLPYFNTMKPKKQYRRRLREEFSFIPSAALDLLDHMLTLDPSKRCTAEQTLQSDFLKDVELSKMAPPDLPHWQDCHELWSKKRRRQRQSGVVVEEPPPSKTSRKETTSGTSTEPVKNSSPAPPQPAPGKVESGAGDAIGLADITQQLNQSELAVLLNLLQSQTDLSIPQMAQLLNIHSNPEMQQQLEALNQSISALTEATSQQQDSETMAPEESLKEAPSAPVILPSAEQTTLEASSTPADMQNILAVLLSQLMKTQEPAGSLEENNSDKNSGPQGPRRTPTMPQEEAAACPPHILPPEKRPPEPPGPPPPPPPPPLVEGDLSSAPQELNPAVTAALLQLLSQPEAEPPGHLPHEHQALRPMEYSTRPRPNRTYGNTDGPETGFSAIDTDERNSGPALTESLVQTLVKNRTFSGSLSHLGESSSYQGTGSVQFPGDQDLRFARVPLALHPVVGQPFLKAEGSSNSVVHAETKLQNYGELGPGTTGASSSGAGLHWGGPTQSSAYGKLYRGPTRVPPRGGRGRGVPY
# T1 sequence (O75909 whole entry partner): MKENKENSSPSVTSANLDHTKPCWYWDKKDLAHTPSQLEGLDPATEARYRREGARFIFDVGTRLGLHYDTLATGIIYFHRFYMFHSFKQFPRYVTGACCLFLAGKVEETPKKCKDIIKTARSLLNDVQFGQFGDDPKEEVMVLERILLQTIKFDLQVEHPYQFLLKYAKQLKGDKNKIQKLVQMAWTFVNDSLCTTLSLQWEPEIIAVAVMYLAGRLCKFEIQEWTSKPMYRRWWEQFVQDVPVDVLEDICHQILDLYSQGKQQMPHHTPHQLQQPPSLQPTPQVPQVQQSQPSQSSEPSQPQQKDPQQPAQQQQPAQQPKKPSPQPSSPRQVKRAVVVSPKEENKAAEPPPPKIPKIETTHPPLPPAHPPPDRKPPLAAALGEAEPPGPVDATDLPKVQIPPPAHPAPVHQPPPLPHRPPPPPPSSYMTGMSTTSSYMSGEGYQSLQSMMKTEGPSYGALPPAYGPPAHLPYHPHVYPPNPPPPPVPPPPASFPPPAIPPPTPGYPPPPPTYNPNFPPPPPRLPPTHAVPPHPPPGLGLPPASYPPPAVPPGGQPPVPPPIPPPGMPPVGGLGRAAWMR
Structure (SMILES),CDK12 degradation activity [1],further results
"O=C(COc1cccc2c1C(=O)N(C1CCC(=O)NC1=O)C2=O)NCCOCCOCCOCCN1CCC[C@@H](Nc2ncc(Cl)c(-c3c[nH]c4ccccc34)n2)C1 (stereo partly drawn) [Compound 1-5, N-(2-(2-(2-(2-((R)-3-((5-chloro-4-(1H-indol-3-yl)pyrimidin-2-yl)amino)piperidin-1-yl)ethoxy)ethoxy)ethoxy)ethyl)-2-((2-(2,6-dioxopiperidin-3-yl)-1,3-dioxoisoindolin-4-yl)oxy)acetamide]",++ (“++” indicates 80% degradation),–
"O=C(COc1cccc2c1C(=O)N(C1CCC(=O)NC1=O)C2=O)NCCCCCN1CCN(c2ccc(C(=O)N3CCC[C@@H](Nc4ncc(Cl)c(-c5c[nH]c6ccccc56)n4)C3)cc2)CC1 (stereo partly drawn) [Compound 1-9, N-(5-(4-(4-((R)-3-((5-chloro-4-(1H-indol-3-yl)pyrimidin-2-yl)amino)piperidine-1-carbonyl)phenyl)piperazin-1-yl)pentyl)-2-((2-(2,6-dioxopiperidin-3-yl)-1,3-dioxoisoindolin-4-yl)oxy)acetamide]",++ (“++” indicates 80% degradation),–
"O=C(COc1cccc2c1C(=O)N(C1CCC(=O)NC1=O)C2=O)NCCCN1CCN(c2ccc(C(=O)N3CCC[C@@H](Nc4ncc(Cl)c(-c5c[nH]c6ccccc56)n4)C3)cc2)CC1 (stereo partly drawn) [Compound 1-10, N-(3-(4-(4-((R)-3-((5-chloro-4-(1H-indol-3-yl)pyrimidin-2-yl)amino)piperidine-1-carbonyl)phenyl)piperazin-1-yl)propyl)-2-((2-(2,6-dioxopiperidin-3-yl)-1,3-dioxoisoindolin-4-yl)oxy)acetamide]",+ (“+” indicates 60% degradation of CDK12 at 100 nM),–
"O=C(COc1cccc2c1C(=O)N(C1CCC(=O)NC1=O)C2=O)NCCCCCCCN1CCC(C(=O)N2CCC[C@@H](Nc3ncc(Cl)c(-c4c[nH]c5ccccc45)n3)C2)CC1 (stereo partly drawn) [Compound 1-12, N-(7-(4-((R)-3-((5-chloro-4-(1H-indol-3-yl)pyrimidin-2-yl)amino)piperidine-1-carbonyl)piperidin-1-yl)heptyl)-2-((2-(2,6-dioxopiperidin-3-yl)-1,3-dioxoisoindolin-4-yl)oxy)acetamide]",++ (“++” indicates 80% degradation),–
"CC(C)S(=O)(=O)c1ccccc1Nc1nc(N[C@@H]2CCCN(CCCCCCCNC(=O)COc3cccc4c3C(=O)N(C3CCC(=O)NC3=O)C4=O)C2)ncc1Cl (stereo partly drawn) [Compound 1-14, N-(7-((R)-3-((5-chloro-4-((2-(isopropylsulfonyl)phenyl)amino)pyrimidin-2-yl)amino)piperidin-1-yl)heptyl)-2-((2-(2,6-dioxopiperidin-3-yl)-1,3-dioxoisoindolin-4-yl)oxy)acetamide]",+++ (“+++” indicates a greater than 90% degradation),–
"Cc1ncsc1-c1ccc([C@H](C)NC(=O)[C@@H]2C[C@@H](O)CN2C(=O)[C@@H](NC(=O)CCCCCCCCCCN2CCC[C@@H](Nc3ncc(Cl)c(Nc4ccccc4S(=O)(=O)C(C)C)n3)C2)C(C)(C)C)cc1 [Compound 1-15, (2S,4R)-1-((S)-2-(11-((R)-3-((5-chloro-4-((2-(isopropylsulfonyl)phenyl)amino)pyrimidin-2-yl)amino)piperidin-1-yl)undecanamido)-3,3-dimethylbutanoyl)-4-hydroxy-N—((S)-1-(4-(4-methylthiazol-5-yl)phenyl)ethyl)pyrrolidine-2-carboxamide]",+++ (“+++” indicates a greater than 90% degradation),AUC % Extrap [2]: 6.27 % Extrap; AUCINF_obs [2]: 368545 ng·min/mL; Cl_obs [2]: 6.04 mL/min/kg; MRTINF_obs [2]: 2.41 h; T1/2 [2]: 2.21 h; Tmax [2]: 4.8 min; Vss_obs [2]: 0.84 L/kg
"Cc1ncsc1-c1ccc([C@H](C)NC(=O)[C@@H]2C[C@@H](O)CN2C(=O)[C@@H](NC(=O)CCOCCOCCOCCN2CCC[C@@H](Nc3ncc(Cl)c(Nc4ccccc4S(=O)(=O)C(C)C)n3)C2)C(C)(C)C)cc1 [Compound 1-16, (2S,4R)-1-((S)-14-(tert-butyl)-1-((R)-3-((5-chloro-4-((2-(isopropylsulfonyl)phenyl)amino)pyrimidin-2-yl)amino)piperidin-1-yl)-12-oxo-3,6,9-trioxa-13-azapentadecan-15-oyl)-4-hydroxy-N—((S)-1-(4-(4-methylthiazol-5-yl)phenyl)ethyl)pyrrolidine-2-carboxamide]",+++ (“+++” indicates a greater than 90% degradation),–
"O=C(COc1cccc2c1C(=O)N(C1CCC(=O)NC1=O)C2=O)NCCCCCCCN1CCC[C@@H](Nc2ncc(Cl)c(-c3c[nH]c4ccccc34)n2)C1 (stereo partly drawn) [Compound I-1, N-(7-((R)-3-((5-chloro-4-(1H-indol-3-yl)pyrimidin-2-yl)amino)piperidin-1-yl)heptyl)-2-((2-(2,6-dioxopiperidin-3-yl)-1,3-dioxoisoindolin-4-yl)oxy)acetamide]",+++ (“+++” indicates a greater than 90% degradation),"degradation of CDK12, CDK13, CDK9 after pre-treatment [3]: rescued"
"O=C(COc1cccc2c1C(=O)N(C1CCC(=O)NC1=O)C2=O)NCCCCCCN1CCC[C@@H](Nc2ncc(Cl)c(-c3c[nH]c4ccccc34)n2)C1 (stereo partly drawn) [Compound I-2, N-(6-((R)-3-((5-chloro-4-(1H-indol-3-yl)pyrimidin-2-yl)amino)piperidin-1-yl)hexyl)-2-((2-(2,6-dioxopiperidin-3-yl)-1,3-dioxoisoindolin-4-yl)oxy)acetamide]",++ (“++” indicates 80% degradation),–
